Reference: PubChem BioAssay AID2060502 (Molecular Pharmacology Branch, DTP, NCI, 2025)

Tested on: 885724-159-R-J1-PDC complex spheroid viability
Assay: Anticancer human tumor 885724-159-R-J1-PDC patient-derived pancreatic adenocarcinoma cell line growth inhibition [GQUAD]
Details: for IC50: curve of first compound; for viability, T/C: stronger effect = lower value
Summary of the method: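 Viability of tumor cells grown as complex spheroids with endothelial and stromal cells, exposed to drug combinations. Top concentration at or near clinical Cmax (else 10 microM), diluted in half-log increments.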

[1] = second compound 0.0316 µM, first compound 0.0316 µM
[2] = second compound 0.0316 µM, first compound 0.1 µM
[3] = second compound 0.0316 µM, first compound 0.316 µM
[4] = second compound 0.0316 µM, first compound 1 µM
[5] = second compound 0.0316 µM, first compound 3.16 µM
[6] = second compound 0.0316 µM, first compound 10 µM
[7] = second compound 0.1 µM, first compound 0.0316 µM
[8] = second compound 0.1 µM, first compound 0.1 µM
[9] = second compound 0.1 µM, first compound 0.316 µM
[10] = second compound 0.1 µM, first compound 1 µM
[11] = second compound 0.1 µM, first compound 3.16 µM
[12] = second compound 0.1 µM, first compound 10 µM
[13] = second compound 0.316 µM, first compound 0.0316 µM
[14] = second compound 0.316 µM, first compound 0.1 µM
[15] = second compound 0.316 µM, first compound 0.316 µM
[16] = second compound 0.316 µM, first compound 1 µM
[17] = second compound 0.316 µM, first compound 3.16 µM
[18] = second compound 0.316 µM, first compound 10 µM
[19] = second compound 1 µM, first compound 0.0316 µM
[20] = second compound 1 µM, first compound 0.1 µM
[21] = second compound 1 µM, first compound 0.316 µM
[22] = second compound 1 µM, first compound 1 µM
[23] = second compound 1 µM, first compound 3.16 µM
[24] = second compound 1 µM, first compound 10 µM
[25] = second compound 3.16 µM, first compound 0.0316 µM
[26] = second compound 3.16 µM, first compound 0.1 µM
[27] = second compound 3.16 µM, first compound 0.316 µM
[28] = second compound 3.16 µM, first compound 1 µM
[29] = second compound 3.16 µM, first compound 3.16 µM
[30] = second compound 3.16 µM, first compound 10 µM
[31] = second compound 10 µM, first compound 0.0316 µM
[32] = second compound 10 µM, first compound 0.1 µM
[33] = second compound 10 µM, first compound 0.316 µM
[34] = second compound 10 µM, first compound 1 µM
[35] = second compound 10 µM, first compound 3.16 µM
[36] = second compound 10 µM, first compound 10 µM
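Also: spheroids exposed to agents for seven days before readout.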
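For viability, T/C in this document: percent of vehicle control viability where 100% = DMSO wells.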

Nc1ccn(C2OC(CO)C(O)C2(F)F)c(=O)n1 (stereo unspecified) + Cc1[nH]c2ccc(F)cc2c1-c1nc2c3cccnc3c3ncccc3c2[nH]1
IC50 (second compound 0.0316 µM): > 10 µM | IC50 (second compound 0.1 µM): > 10 µM | IC50 (second compound 0.316 µM): > 10 µM | IC50 (second compound 1 µM): > 10 µM | IC50 (second compound 3.16 µM): < 0.0316 µM | IC50 (second compound 10 µM): > 10 µM | viability, T/C [1]: 92.8% | viability, T/C [2]: 100% | viability, T/C [3]: 75.2% | viability, T/C [4]: 75.6% | viability, T/C [5]: 75.3% | viability, T/C [6]: 80.8% | viability, T/C [7]: 94.3% | viability, T/C [8]: 82.2% | viability, T/C [9]: 71.4% | viability, T/C [10]: 79.5% | viability, T/C [11]: 73.8% | viability, T/C [12]: 86.6% | viability, T/C [13]: 93.6% | viability, T/C [14]: 89.3% | viability, T/C [15]: 77.3% | viability, T/C [16]: 72.2% | viability, T/C [17]: 79.3% | viability, T/C [18]: 69.3% | viability, T/C [19]: 83.3% | viability, T/C [20]: 67.6% | viability, T/C [21]: 65.8% | viability, T/C [22]: 56.6% | viability, T/C [23]: 70.7% | viability, T/C [24]: 55% | viability, T/C [25]: 43.3% | viability, T/C [26]: 26.1% | viability, T/C [27]: 28.3% | viability, T/C [28]: 22.6% | viability, T/C [29]: 26.1% | viability, T/C [30]: 20.3% | viability, T/C [31]: 67.7% | viability, T/C [32]: 72.9% | viability, T/C [33]: 59% | viability, T/C [34]: 58.4% | viability, T/C [35]: 61.2% | viability, T/C [36]: 62%

Cn1ncnc1[C@H]1c2n[nH]c(=O)c3cc(F)cc(c23)N[C@@H]1c1ccc(F)cc1 + CN(C)c1ccc(Nc2c3ccc(NC(=O)CCN4CCCC4)cc3nc3cc(NC(=O)CCN4CCCC4)ccc23)cc1
IC50 (second compound 0.0316 µM): > 0.316 µM | IC50 (second compound 0.1 µM): > 0.316 µM | IC50 (second compound 0.316 µM): > 0.316 µM | IC50 (second compound 1 µM): > 0.316 µM | IC50 (second compound 3.16 µM): > 0.316 µM | IC50 (second compound 10 µM): > 0.316 µM | viability, T/C (second compound 0.0316 µM, first compound 0.000999 µM): 99% | viability, T/C (second compound 0.0316 µM, first compound 0.00316 µM): 96.7% | viability, T/C (second compound 0.0316 µM, first compound 0.00999 µM): 98.9% | viability, T/C [1]: 107% | viability, T/C (second compound 0.0316 µM, first compound 0.0999 µM): 78.5% | viability, T/C [3]: 84.9% | viability, T/C (second compound 0.1 µM, first compound 0.000999 µM): 101% | viability, T/C (second compound 0.1 µM, first compound 0.00316 µM): 112% | viability, T/C (second compound 0.1 µM, first compound 0.00999 µM): 112% | viability, T/C [7]: 93.1% | viability, T/C (second compound 0.1 µM, first compound 0.0999 µM): 96% | viability, T/C [9]: 88.3% | viability, T/C (second compound 0.316 µM, first compound 0.000999 µM): 103% | viability, T/C (second compound 0.316 µM, first compound 0.00316 µM): 96.2% | viability, T/C (second compound 0.316 µM, first compound 0.00999 µM): 97.3% | viability, T/C [13]: 86% | viability, T/C (second compound 0.316 µM, first compound 0.0999 µM): 97.2% | viability, T/C [15]: 82.1% | viability, T/C (second compound 1 µM, first compound 0.000999 µM): 101% | viability, T/C (second compound 1 µM, first compound 0.00316 µM): 75.7% | viability, T/C (second compound 1 µM, first compound 0.00999 µM): 85.8% | viability, T/C [19]: 73.4% | viability, T/C (second compound 1 µM, first compound 0.0999 µM): 76.7% | viability, T/C [21]: 76.2% | viability, T/C (second compound 3.16 µM, first compound 0.000999 µM): 86.4% | viability, T/C (second compound 3.16 µM, first compound 0.00316 µM): 79% | viability, T/C (second compound 3.16 µM, first compound 0.00999 µM): 76% | viability, T/C [25]: 76.5% | viability, T/C (second compound 3.16 µM, first compound 0.0999 µM): 81.6% | viability, T/C [27]: 75.6% | viability, T/C (second compound 10 µM, first compound 0.000999 µM): 67.3% | viability, T/C (second compound 10 µM, first compound 0.00316 µM): 85.9% | viability, T/C (second compound 10 µM, first compound 0.00999 µM): 78% | viability, T/C [31]: 74.2% | viability, T/C (second compound 10 µM, first compound 0.0999 µM): 75.8% | viability, T/C [33]: 77%

COc1ncnc(C2CC2)c1-c1ncc2cnn(Cc3ccc(-c4nc(C(F)(F)F)cn4C(C)C)cc3)c2n1 + Cc1[nH]c2ccc(F)cc2c1-c1nc2c3cccnc3c3ncccc3c2[nH]1
IC50 (second compound 0.0316 µM): > 10 µM | IC50 (second compound 0.1 µM): > 10 µM | IC50 (second compound 0.316 µM): > 10 µM | IC50 (second compound 1 µM): > 10 µM | IC50 (second compound 3.16 µM): < 0.0316 µM | IC50 (second compound 10 µM): > 10 µM | viability, T/C [1]: 85.5% | viability, T/C [2]: 91.4% | viability, T/C [3]: 93.7% | viability, T/C [4]: 81.8% | viability, T/C [5]: 89.9% | viability, T/C [6]: 94% | viability, T/C [7]: 101% | viability, T/C [8]: 90% | viability, T/C [9]: 86.3% | viability, T/C [10]: 90.4% | viability, T/C [11]: 91.3% | viability, T/C [12]: 111% | viability, T/C [13]: 96.7% | viability, T/C [14]: 81.5% | viability, T/C [15]: 76.1% | viability, T/C [16]: 72.3% | viability, T/C [17]: 88% | viability, T/C [18]: 82.3% | viability, T/C [19]: 70.3% | viability, T/C [20]: 65.8% | viability, T/C [21]: 62.8% | viability, T/C [22]: 56.3% | viability, T/C [23]: 70.5% | viability, T/C [24]: 67.8% | viability, T/C [25]: 23.7% | viability, T/C [26]: 12.7% | viability, T/C [27]: 10.7% | viability, T/C [28]: 8.78% | viability, T/C [29]: 11.8% | viability, T/C [30]: 12.8% | viability, T/C [31]: 69.6% | viability, T/C [32]: 66% | viability, T/C [33]: 63.7% | viability, T/C [34]: 72.1% | viability, T/C [35]: 69.3% | viability, T/C [36]: 68.3%
